* marks the point of attachment. Hexenoyl(3E) = CC/C=C/CC(=O)*

The test system of assay [1] is hallmark gene pathways. The note with it: liver biopsy, pre- to post-treatment (12 months), tesamorelin versus placebo, GSEA FDR <0.05; cited from earlier work.
For assay [2], the system named is CASP8. Kind of assay: Plasma CASP8 by Olink proximity extension assay, randomized trial of tesamorelin vs placebo. Type of assay: in vivo, human. As to conditions: HIV-associated NAFLD, tesamorelin 2 mg daily, change over 12 months, plasma NPX, mean ± SD, n = 20. How it is done: (§1) A randomized, double blind trial in which individuals with HIV-associated NAFLD were assigned to receive the growth hormone-releasing hormone (GHRH) analogue tesamorelin 2 mg daily or identical placebo for 12 months (7). […] Changes in circulating levels of proteins corresponding to top leading-edge genes in pathways responsive to tesamorelin between treatment groups were investigated, and the relationships of these proteins to histologic, radiographic, and transcriptomic indices was assessed to identify plasmatic markers of NAFLD/NASH and elucidate potential mechanisms of tesamorelin response.
(§2) 61 men and women 18-70 years old who had documented HIV infection and liver steatosis as defined by hepatic fat fraction ≥5% on ^1H-magnetic resonance spectroscopy (^1H-MRS) were enrolled. […]
(§3) Study procedures for the parent clinical trial have been described in detail elsewhere (7, 9). […] Serum IGF-1 was measured using standard techniques (Quest Laboratories).
(§4) For this analysis, change in targeted proteins over 12 months was assessed using an Olink® Multiplex proximity extension assay (PEA) platform. The PEA is an affinity-based assay that characterizes abundance levels of pre-determined sets of proteins. […] The resultant DNA sequence is detected and quantified using standard real-time PCR on the Fluidigm BioMark™ HD real-time PCR platform. […]

The subject of assay [3] is NCR1. Briefly: Plasma NCR1 by Olink proximity extension assay, randomized trial of tesamorelin vs placebo. The format is in vivo, human. As to conditions: HIV-associated NAFLD, tesamorelin 2 mg daily, change over 12 months, plasma NPX, mean ± SD, n = 20. As for the experimental part: as §1, §2, §3, §4
Assay [4] deals with CXCL12. Kind of assay: Plasma CXCL12 by Olink proximity extension assay, randomized trial of tesamorelin vs placebo. The format is in vivo, human. The note with it: HIV-associated NAFLD, tesamorelin 2 mg daily, change over 12 months, plasma NPX, mean ± SD, n = 20. As for the experimental part: as §1, §2, §3, §4
Assay [5] relates to TGFB1. Kind of assay: Plasma TGFB1 by Olink proximity extension assay, randomized trial of tesamorelin vs placebo. As to conditions: HIV-associated NAFLD, tesamorelin 2 mg daily, change over 12 months, plasma NPX, mean ± SD, n = 20. Type of assay: in vivo, human. How it is done: as §1, §2, §3, §4
For assay [6], the system named is CCL20. Kind of assay: Plasma CCL20 by Olink proximity extension assay, randomized trial of tesamorelin vs placebo. Type of assay: in vivo, human. As to conditions: HIV-associated NAFLD, tesamorelin 2 mg daily, change over 12 months, plasma NPX, mean ± SD, n = 20. How it is done:
as §1, §2, §3, §4

The test system of assay [7] is TNFRSF21. Briefly: Plasma TNFRSF21 by Olink proximity extension assay, randomized trial of tesamorelin vs placebo. Type of assay: in vivo, human. The note with it: HIV-associated NAFLD, tesamorelin 2 mg daily, change over 12 months, plasma NPX, mean ± SD, n = 20. How it is done:
as §1, §2, §3, §4

In assay [8] the test system is CRTAM. Briefly: Plasma CRTAM by Olink proximity extension assay, randomized trial of tesamorelin vs placebo. The format is in vivo, human. The note with it: HIV-associated NAFLD, tesamorelin 2 mg daily, change over 12 months, plasma NPX, mean ± SD, n = 20. How it is done: as §1, §2, §3, §4
For assay [9], the system named is VEGFA. Kind of assay: Plasma VEGFA by Olink proximity extension assay, randomized trial of tesamorelin vs placebo. The format is in vivo, human. The note with it: HIV-associated NAFLD, tesamorelin 2 mg daily, change over 12 months, plasma NPX, mean ± SD, n = 20. As for the experimental part: as §1, §2, §3, §4
Assay [10] relates to CSF1. Kind of assay: Plasma CSF1 by Olink proximity extension assay, randomized trial of tesamorelin vs placebo. Type of assay: in vivo, human. The note with it: HIV-associated NAFLD, tesamorelin 2 mg daily, change over 12 months, plasma NPX, mean ± SD, n = 20. As for the experimental part: as §1, §2, §3, §4

Take “trans-3-hexenoyl-GHRH(1-44)-NH2 ({Hexenoyl(3E)}-YADAIFTNSYRKVLGQLSARKLLQDIMSRQQGESNQERGARARL-NH2) [Tesamorelin]”: the “13 hepatic gene sets involved in inflammation, tissue repair, and cell division, regulation with treatment” value in assay [1] is “downregulated”. For the same substance, the “Hepatic gene set pertaining to oxidative phosphorylation, regulation with treatment” value in assay [1] is on record as “upregulated”. For the same substance, the “Log2-Fold change plasma CASP8” value in assay [2] is on record as −0.37 ± 0.72. In [3], the “Log2-Fold change plasma NCR1” value is −0.20 ± 0.52. For the same substance, the “Log2-Fold change plasma CXCL12” value in assay [4] is −0.03 ± 0.18. Besides, the “Log2-Fold change plasma TGFB1” value in [5] and in assay [5] (listed as tesamorelin) was −0.35±0.56 each time. The figures for the “Log2-Fold change plasma CCL20” value in assay [6] and in assay [6] (listed as tesamorelin) were −0.28 ± 0.88 and −0.28±0.88, respectively. The “Log2-Fold change plasma TNFRSF21” value in assay [7] is given as −0.13 ± 0.22. Besides, the “Log2-Fold change plasma CRTAM” value in assay [8] is listed as −0.35 ± 0.73. In addition, the “Log2-Fold change plasma VEGFA” value in assay [9] and in [9] (listed as tesamorelin) was −0.20±0.35 throughout. Besides, the “Log2-Fold change plasma CSF1” value in assay [10] and in assay [10] (listed as tesamorelin) was −0.17±0.21 throughout.

Values taken from patent US20230393148A1, “KITS, REAGENTS AND METHODS FOR THE ASSESSMENT OF LIVER DISEASES” (The General Hospital Corporation, priority 2020, published 2023).
